Experimental data reported in patent US6720346B2, “Thiazole benzamide derivatives and pharmaceutical compositions for inhibiting cell proliferation” (Agouron Pharmaceuticals, Inc., priority 2001, dated 2004).
Structures can show the parent of a compound that is named as a salt.

What was measured:
CDK2/cyclin A = biological target: T1, CDK2/cyclin A (Homo sapiens, UniProt P24941); test: Inhibition of CDK2/cyclin A retinoblastoma kinase activity (Ki; % inhibition); format: biochemical
T1 construct: made in house; host or cells: CDK2: insect cells (baculovirus); cyclin A: E. coli
Method in brief: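 Radiometric filter assay of CDK2/proteolyzed cyclin A (baculovirus-expressed human CDK2, 10 or 19 nM) phosphorylating an Rb fragment with 25 μM [³²P/³³P]ATP in pH 7.4 HEPES, 2% DMSO, at 30 °C for 60 or 75 min under initial-rate conditions. Library compounds screened at 30 nM for % inhibition; apparent Ki from concentration series fit to competitive or tight-binding inhibition equations.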

human CDK4/cyclin D3 = biological target: T2, human CDK4/cyclin D3 (Homo sapiens, UniProt P11802); test: Inhibition of CDK4/cyclin D retinoblastoma kinase activity (Ki; % inhibition); format: biochemical
T2 construct: made in house; host or cells: insect cells co-infected with baculovirus vectors
T2 sequence (P11802 whole entry): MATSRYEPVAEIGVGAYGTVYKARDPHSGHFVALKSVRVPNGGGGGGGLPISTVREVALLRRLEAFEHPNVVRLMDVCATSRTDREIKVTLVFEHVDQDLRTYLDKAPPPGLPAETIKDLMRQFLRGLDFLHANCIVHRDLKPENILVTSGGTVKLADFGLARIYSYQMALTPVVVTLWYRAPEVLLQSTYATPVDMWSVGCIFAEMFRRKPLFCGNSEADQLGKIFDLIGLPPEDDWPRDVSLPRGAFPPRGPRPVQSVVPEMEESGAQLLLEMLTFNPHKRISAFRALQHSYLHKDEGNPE
T2 sequence (P30281 1-264 partner limits assumed): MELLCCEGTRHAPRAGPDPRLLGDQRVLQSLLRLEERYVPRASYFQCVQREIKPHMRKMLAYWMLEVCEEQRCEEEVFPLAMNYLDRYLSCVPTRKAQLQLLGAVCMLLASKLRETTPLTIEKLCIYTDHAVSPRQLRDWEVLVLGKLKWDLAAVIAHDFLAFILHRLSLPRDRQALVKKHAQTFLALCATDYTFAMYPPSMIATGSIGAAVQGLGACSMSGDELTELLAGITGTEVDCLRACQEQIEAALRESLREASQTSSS
Method in brief: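 Insect-cell-expressed CDK4 with truncated cyclin D3 (1-264), 5 nM, phosphorylating His-tagged Rb fragment (386-928) with 25 μM [32/33P]ATP at pH 7.4, 30 °C, 20 min (60 min for tight binders). Filter capture, phosphorimager read; % inhibition at 30 nM compound, Ki from competitive or tight-binding fits.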

HCT-116 cell line = test: Inhibition of cell growth, MTT tetrazolium salt assay; format: cell-based
Method in brief: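 Cells in McCoy's 5A medium were given 4 h before compound addition in 0.5% (v/v) DMSO, then incubated 3–5 days at 37 °C, 5% CO2. After 4 h with 0.2 mg/mL MTT, DMSO-solubilized formazan was read at 540 nm; 50% and 90% growth-inhibitory concentrations came from semi-log plots against vehicle controls.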

[1] = HCT-116 cells, 0.25 μM compound

Row | Compound | CDK2 % Inhibition at 0.03 μM (CDK2/cyclin A; at 0.03 μM) | CDK4 % Inhibition at 0.03 μM (human CDK4/cyclin D3; at 0.03 μM) | HCT-116 % Inhibition at 0.1 μM (HCT-116 cell line; HCT-116, at 0.1 μM) | HCT-116 % Inhibition at 0.25 μM (HCT-116 cell line; HCT-116, at 0.25 μM) | CDK2 % Inhibition at 0.03 μM (CDK2/cyclin A; 0.03 μM compound) | CDK4 % Inhibition at 0.03 μM (human CDK4/cyclin D3; 0.03 μM compound) | HCT-116 % Inhibition at 0.1 μM (HCT-116 cell line; HCT-116 cells, 0.1 μM compound) | HCT-116 % Inhibition at 0.25 μM (HCT-116 cell line; [1]) | other results
1 | Nc1nc(Nc2ccc(C(=O)NCCc3ccccn3)cc2)sc1C(=O)c1c(F)cccc1F [Example G140] | 15% | 19% | 0% | 54% |  |  |  |  | 
2 | CC(=O)c1ccc(NC(=O)c2ccc(Nc3nc(N)c(C(=O)c4c(F)cccc4F)s3)cc2)cc1 [Example G310] |  |  |  |  | −5% | 10% | 14% | 53% | 
3 | CN(CC1OCCO1)C(=O)c1ccc(Nc2nc(N)c(C(=O)c3c(F)cccc3F)s2)cc1 [Example G42] | 10% | 7% |  | 54% |  |  |  |  | 
4 | CC(CO)NC(=O)c1ccc(Nc2nc(N)c(C(=O)c3c(F)cccc3F)s2)cc1 (stereo not shown) [Example G175] | 15% | 31% |  |  |  |  |  |  | HCT-116 % Inhibition at 0.1 μM (HCT-116 cell line; HCT-116, at 0.1 μM, 0.1 µM): 11%; HCT-116 % Inhibition at 0.25 μM (HCT-116 cell line; HCT-116, at 0.25 μM, 0.25 µM): 47%
5 | Nc1nc(Nc2ccc(C(=O)N3CCN(C=O)CC3)cc2)sc1C(=O)c1c(F)cccc1F [Example G78] | 11% | 13% |  | 58% |  |  |  |  | 
6 | CCN1CCN(C(=O)c2ccc(Nc3nc(N)c(C(=O)c4c(F)cccc4F)s3)cc2)CC1 [Example G81] | 15% | 19% |  | 58% |  |  |  |  | 
7 | CN(CCc1ccccc1)C(=O)c1ccc(Nc2nc(N)c(C(=O)c3c(F)cccc3F)s2)cc1 [Example G11] | −12% | 6% |  | 49% |  |  |  |  | 
8 | Nc1nc(Nc2ccc(C(=O)NCCOc3ccccc3)cc2)sc1C(=O)c1c(F)cccc1F [Example G113] | 51% | 43% | 26% | 80% |  |  |  |  | 
9 | COCC(C)NC(=O)c1ccc(Nc2nc(N)c(C(=O)c3c(F)cccc3F)s2)cc1 (stereo not shown) [Example G103] | −2% | 5% | 21% | 59% |  |  |  |  | 
10 | CCOC(=O)CC(C)NC(=O)c1ccc(Nc2nc(N)c(C(=O)c3c(F)cccc3F)s2)cc1 (stereo not shown) [Example G117] | 4% | 13% | 6% | 55% |  |  |  |  | 
11 | Nc1nc(Nc2ccc(C(=O)N3CCC(O)(c4ccccc4)CC3)cc2)sc1C(=O)c1c(F)cccc1F [Example G202] |  |  |  |  | 5% | 25% | 20% | 48% | 
12 | C[C@H](NC(=O)c1ccc(Nc2nc(N)c(C(=O)c3c(F)cccc3F)s2)cc1)C(N)=O [Example G191] | 14% | 15% | 3% | 51% |  |  |  |  | 
13 | COCCN(CCOC)C(=O)c1ccc(Nc2nc(N)c(C(=O)c3c(F)cccc3F)s2)cc1 [Example G36] | −4% | 6% |  | 62% |  |  |  |  | 
14 | CCOCCNC(=O)c1ccc(Nc2nc(N)c(C(=O)c3c(F)cccc3F)s2)cc1 [Example G136] | −4% | 12% | 0% | 49% |  |  |  |  | 
15 | Nc1nc(Nc2ccc(C(=O)Nc3cccc(Cl)c3)cc2)sc1C(=O)c1c(F)cccc1F [Example G76] | 7% | 7% |  | 61% |  |  |  |  | 
16 | Cc1cc(NC(=O)c2ccc(Nc3nc(N)c(C(=O)c4c(F)cccc4F)s3)cc2)ccc1F [Example G330] |  |  |  |  | −1% | 12% | 2% | 55% | 
17 | Cc1ccc([C@H](C)NC(=O)c2ccc(Nc3nc(N)c(C(=O)c4c(F)cccc4F)s3)cc2)cc1 [Example G245] |  |  |  |  | 36% | 34% | 18% | 55% | 
18 | CCOC(=O)c1ccc(NC(=O)c2ccc(Nc3nc(N)c(C(=O)c4c(F)cccc4F)s3)cc2)cc1 [Example G190] | 5% | 4% | 9% | 55% |  |  |  |  | 

Row | Compound | CDK2 % Inhibition at 0.03 μM (CDK2/cyclin A; at 0.03 μM) | CDK4 % Inhibition at 0.03 μM (human CDK4/cyclin D3; at 0.03 μM) | HCT-116 % Inhibition at 0.1 μM (HCT-116 cell line; HCT-116, at 0.1 μM) | HCT-116 % Inhibition at 0.25 μM (HCT-116 cell line; HCT-116, at 0.25 μM) | CDK2 % Inhibition at 0.03 μM (CDK2/cyclin A; 0.03 μM compound) | CDK4 % Inhibition at 0.03 μM (human CDK4/cyclin D3; 0.03 μM compound) | HCT-116 % Inhibition at 0.1 μM (HCT-116 cell line; HCT-116 cells, 0.1 μM compound) | HCT-116 % Inhibition at 0.25 μM (HCT-116 cell line; [1]) | other results
19 | CC(C)OCCCNC(=O)c1ccc(Nc2nc(N)c(C(=O)c3c(F)cccc3F)s2)cc1 [Example G135] | 2% | 25% | 0% | 56% |  |  |  |  | 
20 | Nc1nc(Nc2ccc(C(=O)Nc3ccc(Cl)cc3)cc2)sc1C(=O)c1c(F)cccc1F [Example G288] |  |  |  |  | −10% | 11% | 16% | 60% | 
21 | Nc1nc(Nc2ccc(C(=O)NCCCN3CCCCC3)cc2)sc1C(=O)c1c(F)cccc1F [Example G128] | 15% | 41% | 23% | 78% |  |  |  |  | 
22 | CN(C)C1CCN(C(=O)c2ccc(Nc3nc(N)c(C(=O)c4c(F)cccc4F)s3)cc2)C1 (stereo not shown) [Example G29] | 4% | 32% |  |  |  |  |  |  | HCT-116 % Inhibition at 0.25 μM (HCT-116 cell line; HCT-116, at 0.25 μM, 0.25 µM): 55%
23 | CC(C)CCCC(C)NC(=O)c1ccc(Nc2nc(N)c(C(=O)c3c(F)cccc3F)s2)cc1 (stereo not shown) [Example G141] | 0% | 11% | 0% | 50% |  |  |  |  | 
24 | CCCCN(CCCCO)C(=O)c1ccc(Nc2nc(N)c(C(=O)c3c(F)cccc3F)s2)cc1 [Example G340] |  |  |  |  | −12% | 9% | 28% | 40% | 
25 | CN(CC(O)CO)C(=O)c1ccc(Nc2nc(N)c(C(=O)c3c(F)cccc3F)s2)cc1 (stereo not shown) [Example G174] | 0% | 15% | 28% | 56% |  |  |  |  | 
26 | Nc1nc(Nc2ccc(C(=O)N3CCN(C(=O)c4ccco4)CC3)cc2)sc1C(=O)c1c(F)cccc1F [Example G32] | 8% | 27% |  | 55% |  |  |  |  | 
27 | CN(C)C(=O)CN(C)C(=O)c1ccc(Nc2nc(N)c(C(=O)c3c(F)cccc3F)s2)cc1 [Example G5] | −23% | −3% |  | 47% |  |  |  |  | 
28 | Nc1nc(Nc2ccc(C(=O)NCCN3CCNC3=O)cc2)sc1C(=O)c1c(F)cccc1F [Example G229] |  |  |  |  | 12% | 9% | 8% | 44% | 
29 | Nc1nc(Nc2ccc(C(=O)NCC(O)c3ccccc3)cc2)sc1C(=O)c1c(F)cccc1F (stereo not shown) [Example G104] | 8% | 14% | 38% | 91% |  |  |  |  | 
30 | COc1ccc(CCN(C)C(=O)c2ccc(Nc3nc(N)c(C(=O)c4c(F)cccc4F)s3)cc2)cc1OC [Example G361] |  |  |  |  | −3% | −1% | 26% | 48% | 
31 | Nc1nc(Nc2ccc(C(=O)NCc3ccccc3C(F)(F)F)cc2)sc1C(=O)c1c(F)cccc1F [Example G269] |  |  |  |  | 6% | 2% | 19% | 65% | 
32 | CN(C)CC(C)(C)NC(=O)c1ccc(Nc2nc(N)c(C(=O)c3c(F)cccc3F)s2)cc1 [Example A61, 4-[4-Amino-5-(2,6-difluoro-benzoyl)-thiazol-2-ylamino]-N-(2-dimethylamino-1,1-dimethyl-ethyl)-benzamide Dihydrochloride] |  |  |  |  |  |  |  |  | Ki (CDK2/cyclin A; apparent Ki, CDK2/cyclin A, Rb substrate): 37.5 nM; Ki (human CDK4/cyclin D3; apparent Ki, CDK4/cyclin D3, Rb substrate): 232 nM; IC50 (HCT-116 cell line; Homo sapiens, HCT-116, 120 h, MTT, three to five days): 220 nM
33 | Nc1nc(Nc2ccc(C(=O)Nc3cccc(-c4cnco4)c3)cc2)sc1C(=O)c1c(F)cccc1F [Example G153] | 18% | 15% | 0% | 66% |  |  |  |  | 
34 | CN(C)CCN1CCN(C(=O)c2ccc(Nc3nc(N)c(C(=O)c4c(F)cccc4F)s3)cc2)CC1 [Example G382] |  |  |  |  | −17% | 8% | 17% | 47% | 
35 | CN(CCCNC(=O)c1ccc(Nc2nc(N)c(C(=O)c3c(F)cccc3F)s2)cc1)c1ccccc1 [Example G363] |  |  |  |  | 27% | 16% | 24% | 63% | 
